According to US8536192B2, “6,7-unsaturated-7-carbamoyl substituted morphinan derivative” (priority 2005, dated 2013):
Like-named read-outs stand apart in the source and are kept apart here.

Legend:
opioid δ receptor = opioid δ receptor (Rattus norvegicus (Rat), UniProt P33533); experiment: Binding assay of opioid δ receptor ([3H]-DADLE, rat cerebrum membrane)
Description: (§1) 1) Method of Preparing Membrane Specimen for Binding Assay
(§2) A rat cerebrum (Slc: SD) which had been stored at −80° C. was used. To a cerebrum which had been weighed was added a 20-fold amount of ice-cooled 10 mM Tris-HCl buffer (pH 7.0), and the mixture was homogenized (25000 rpm, 30 seconds) with Histocolon (NITI-ON), and centrifuged at 36600×g for 20 minutes. To the resulting pellet was added 15 ml of the same buffer, and the mixture was treated with Histocolon similarly, and centrifuged. This washing work was performed two times. After centrifugation, to the resulting pellet was added 15 mL of a 50 mM Tris-HCl buffer (pH 7.4), and this was treated with Histocolon, and finally resuspended in a 10-fold amount of the same buffer, which was used as a crude membrane fraction (Life Sci. 48, 111-116, 1991). The prepared membrane specimen was frozen and stored at −80° C., and at an assay, the specimen was rapidly thawed, and diluted to about 900 μg/mL with a 50 mM Tris-HCl buffer (pH 7.4) after the centrifugation and Histocolon treatment, and was used in an experiment. For measuring a protein concentration of the membrane specimen, Micro BCA Protein Assay Kit (PIERCE) was used.
2) Method of δ Receptor Binding Assay and Data Analysis
Into a tube was placed 480 μl of a rat cerebrum membrane fraction to which 100 mM choline chloride, 3 mM MnCl2 and 100 nM DAMGO had been added, and this was incubated at 25° C. for 2 hours. […] After washing, the filter was transferred to a mini vial for liquid scintillation counter, 5 mL of a scintillator (Cleasol I) was added, this was allowed to stand overnight, and the radioactivity was measured for 3 minutes with a liquid scintillation counter Tri-Carb 2200CA (PACKARD).

opioid μ receptor = opioid μ receptor (Rattus norvegicus (Rat), UniProt P33535); experiment: Binding assay to opioid μ receptor ([3H]-DAMGO, rat cerebrum membrane)
Description: as §1
as §2, with “(pH 7.0), the mixture” for “(pH 7.0), and the mixture”, “(pH 7.4), this was” for “(pH 7.4), and this was”, “Histocolon, and this was finally resuspended” for “Histocolon, and finally resuspended”, “and at a test, the specimen” for “and at an assay, the specimen”
2) Method of μ Receptor Binding Assay and Data Analysis
After washing, the filter was transferred to a mini vial for liquid scintillation counter, 5 mL of a scintillator (Cleasol I) was added, and this was allowed to stand overnight, and the radioactivity was measured for 3 minutes with a liquid scintillation counter Tri-Carb 2200CA (PACKARD).

[1] = test system: carbon powder transport of inhibitory activity by morphine; experiment: Mouse carbon powder transport assay (antagonism of morphine-inhibited small intestine transport); type: in vivo; settings: sc, 1 h, test compound 3 mg/kg subcutaneously, 15 minutes before morphine 3 mg/kg
Description: 1) Preparation of Test Diet (Carbon Powder)
Using a 10 w/v % arabic gum aqueous solution, a 5 w/v % active carbon solution was prepared, which was used as a test diet.
A ddY line male mouse (5 to 6 weeks old) was used. The mouse was fasted from about 20 or more hours before assay initiation, and water was given ad lib.
The test compound was dissolved in a solvent (DMAA/Solutol/5% meglumine=15/15/70).
Morphine hydrochloride was dissolved in a physiological saline. The test compound, the above solvent and morphine were all administered at a liquid amount of 10 mL/kg.
The test compound 3 mg/kg (test compound administration group) or the solvent (solvent administration group) were subcutaneously administered and, after 15 minutes, amount of 3 mg/kg of morphine was administered to all groups. As a control group, the solvent was subcutaneously administered and, after 15 minutes, a physiological saline was administered.
The test diet 10 mL/kg was orally administered at 15 minutes after administration of morphine. At thirty minutes after administration of the test diet (60 minutes after administration of the test substance), all mice were isolated from esophagus to an ileocecal part near a stomach cardia part. A distance from pyloric part of the stomach to an ileocecal part (full length of small intestine) and a distance until a carbon powder reaching front part (carbon powder movement distance) were measured. The antagonistic activity on the carbon powder transport of inhibitory activity by morphine was calculated as MPE (%) using the following equation. Transport rate (%)=(carbon powder movement distance)/full length of small intestine (cm))×100 M.P.E. (%)={(small intestine transport rate (%) of each individual of test compound administration group−average small intestine transport rate (%) of solvent administration group)/(average small intestine transport rate (%) of control group−average small intestine transport rate (%) of solvent administration group)}×100

| Structure (SMILES) | Ki (opioid δ receptor) [nM] | Ki (opioid μ receptor) [nM] | percent antagonism of morphine-inhibited transport (M.P.E.) at 3 mg/kg [1] [%] | Ki (opioid δ receptor; [3H]-DADLE, rat cerebrum membrane fraction, read-out: Ki) [nM] | Ki (opioid μ receptor; [3H]-DAMGO, rat cerebrum membrane fraction, read-out: Ki) [nM] |
| --- | --- | --- | --- | --- | --- |
| COCC(C)(COC)NC(=O)C1=C(O)[C@@H]2Oc3c(O)ccc4c3[C@@]23CCN(CC2CC2)[C@H](C4)[C@]3(O)C1 [Compound I-288] | 5.36 | 14.4 | 101 |  |  |
| CC(C)NC(=O)C1=C(NS(=O)(=O)c2ccc(F)cc2)[C@@H]2Oc3c(O)ccc4c3[C@@]23CCN(CC2CC2)[C@H](C4)[C@]3(O)C1 [Compound I-289] |  |  | 67 | 0.47 | 12.9 |
